From patent US11248006B2, “Macrocyclic derivative of pyrazol[3,4-d]pyrimidin-3-one, pharmaceutical composition and use thereof” (SHANGHAI DE NOVO PHARMATECH CO., LTD., priority 2017, dated 2022)

Target: T1, Wee1 (Homo sapiens (Human), UniProt P30291)
Test: Wee1 enzyme catalysis assay (ATP-Glo Max kinase luminescence detection kit)
Assay type: biochemical
Conditions: Wee1 enzymatic activity, 10 μM ATP, Poly (Lys, Tyr) substrate, 30° C. for 50 minutes
Experimental: In the present disclosure, Wee1 enzyme catalysis assay was carried out using the ATP-Glo Max kinase luminescence detection kit (Promega). Kinase activity was assessed by quantitative detection of the amount of ATP retained in the solution following the kinase reaction. The luminescent signal in the assay is proportional to the amount of ATP and inversely proportional to the kinase activity. The concentration of the compound in the assay ranged from 0.5 nM to 30 μM. The compound was dissolved in 10% DMSO, and 5 μL of the solution was added to 50 μL of the reaction, and the concentration of DMSO in the final reaction was 1%. The reaction was carried out at 30° C. for 50 minutes. 40 mM trishydroxymetyl aminomethane, pH 7.4, 10 mM MgCl2, 0.1 mg/ml BSA, 2 mM DTT, 0.1 mg/ml Poly (Lys, Tyr) substrate, 10 μM ATP and Wee1 were contained in the reaction mixture. After the enzymatic reaction, 50 μL of ATP-Glo Max kinase luminescence detection assay solution (Promega) was added and incubated for 15 minutes at room temperature. The luminescent signal was measured using a microplate reader. In some assays, a known Wee1 inhibitor was added as a positive control. Luminance data was analyzed using Graphpad software. The difference between the luminescence intensity in the absence of Wee1 and the luminescence intensity in the presence of Wee1 was defined as 100% activity (Lut−Luc). Using the luminescence intensity signal (Lu) in the presence of the compound, the % activity was calculated as follows: % Activity={(Lut−Lu)/(Lut−Luc)}×100%, wherein, Lu=luminous intensity of the compound Non-linear regression analysis was employed to plot the dose-effect curve of % activity value and the corresponding concentrations for the series of compounds. The equation is Y=B+(TB)/1+10((Log EC50−X)×Hill Slope), Y=% activity, B=minimum activity percentage, T=maximum activity percentage, X=logarithm of compound and Hill slope=slope factor or Hill coefficient. The IC50 value was determined by the concentration of a compound that is required to obtain 50% of the maximum effect.

T1 sequence (P30291 whole entry): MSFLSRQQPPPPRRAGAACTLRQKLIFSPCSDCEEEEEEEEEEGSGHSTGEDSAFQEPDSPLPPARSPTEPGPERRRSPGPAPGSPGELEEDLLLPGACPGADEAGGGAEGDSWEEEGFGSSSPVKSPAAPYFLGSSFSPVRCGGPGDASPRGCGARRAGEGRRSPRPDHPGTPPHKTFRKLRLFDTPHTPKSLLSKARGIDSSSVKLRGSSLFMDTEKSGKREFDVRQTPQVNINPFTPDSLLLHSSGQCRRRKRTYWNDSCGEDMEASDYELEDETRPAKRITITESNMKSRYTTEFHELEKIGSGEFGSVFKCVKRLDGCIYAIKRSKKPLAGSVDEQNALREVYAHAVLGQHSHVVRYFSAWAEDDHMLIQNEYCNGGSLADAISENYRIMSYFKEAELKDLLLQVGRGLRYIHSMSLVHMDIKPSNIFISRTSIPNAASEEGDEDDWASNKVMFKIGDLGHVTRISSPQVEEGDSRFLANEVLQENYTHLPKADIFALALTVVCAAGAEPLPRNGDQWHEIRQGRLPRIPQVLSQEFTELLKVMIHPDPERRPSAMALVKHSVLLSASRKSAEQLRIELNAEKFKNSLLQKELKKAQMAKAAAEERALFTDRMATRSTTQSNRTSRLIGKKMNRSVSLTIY

| Compound | IC50 |
| --- | --- |
| C=CCCCCN1C(=O)COc2ccc(-n3c4nc(SC)ncc4c(=O)n3CC=C)nc21 [Compound 3-1-1] | 4.9 nM |
| CC(C)N1CCC(n2ccc3cc(Nc4ncc5c(=O)n6n(c5n4)-c4ccc5c(n4)N(CCC/C=C\C6)C(=O)CO5)ccc32)CC1 [Compound 3-7-7] | 6.6 nM |
| CN1Cc2cc(Nc3ncc4c(=O)n5n(c4n3)-c3ccc4c(n3)N(CC/C=C\C5)C(=O)CO4)ccc2C2(CC2)C1 [Compound 3-2-3] | 7.6 nM |
| CN1Cc2cc(Nc3ncc4c(=O)n5n(c4n3)-c3ccc4c(n3)N(CCO4)C(=O)CC/C=C\C5)ccc2C2(CC2)C1 [Compound 8-1-2] | 4.4 nM |
| CN1CCN(c2ccc(Nc3ncc4c(=O)n5n(c4n3)-c3ccc4c(n3)N(CCC/C=C\C5)C(=O)CO4)cc2CO)CC1 [Compound 3-3-1] | 5.5 nM |
| CN1CCn2c(cc3cc(Nc4ncc5c(=O)n6n(c5n4)-c4ccc5c(n4)N(CCC/C=C\C6)C(=O)CO5)ccc32)C1 [Compound 3-7-8] | 12.3 nM |
| CN1CCN(c2ccc(Nc3ncc4c(=O)n5n(c4n3)-c3cccc(n3)OCCCC/C=C/C5)cc2)CC1 [Compound 1-1-1] | 6.7 nM |
| CC(C)(C)OC(=O)N1Cc2cc(Nc3ncc4c(=O)n5n(c4n3)-c3ccc4c(n3)N(CCC/C=C\C5)C(=O)CO4)ccc2C(C)(C)C1 [Compound 3-5-2] | 6.1 nM |
| CS(=O)(=O)CCN1CCC(n2ccc3cc(Nc4ncc5c(=O)n6n(c5n4)-c4ccc5c(n4)N(CCC/C=C\C6)C(=O)CO5)ccc32)CC1 [Compound 3-7-9] | 9.2 nM |
| CC(C)(C)OC(=O)N1CCC(n2ccc3cc(Nc4ncc5c(=O)n6n(c5n4)-c4ccc5c(n4)N(CCC/C=C\C6)C(=O)CO5)ccc32)CC1 [Compound 3-7-3] | 9.5 nM |
| CN1Cc2cc(Nc3ncc4c(=O)n5n(c4n3)-c3ccc4c(n3)N(CCC/C=C\C5)C(=O)CO4)ccc2C2(CC2)C1 [Compound 3-2-2] | 11 nM |
| CN1CCC(n2ccc3cc(Nc4ncc5c(=O)n6n(c5n4)-c4ccc5c(n4)N(CCC/C=C\C6)C(=O)CO5)ccc32)C1 (centres unmarked) [Compound 3-7-6] | 9.6 nM |
| CC(C)N1CCC(n2ccc3cc(Nc4ncc5c(=O)n6n(c5n4)-c4ccc5c(n4)N(CCC/C=C\C6)C(=O)CO5)ccc32)CC1 [Compound 3-7-15] | 7.9 nM |
| O=C1COc2ccc3nc2N1CCC/C=C\Cn1c(=O)c2cnc(Nc4ccc5c(ccn5C5CCN(CCO)CC5)c4)nc2n1-3 [Compound 3-7-10] | 8.5 nM |
| COc1cc(Nc2ncc3c(=O)n4n(c3n2)-c2ccc3c(n2)N(CCC/C=C\C4)C(=O)CO3)ccc1N1CCN(C)CC1 [Compound 3-3-2] | 3.3 nM |
| CN1CCC(n2ccc3cc(Nc4ncc5c(=O)n6n(c5n4)-c4ccc5c(n4)N(CCC/C=C\C6)C(=O)CO5)ccc32)CC1 [Compound 3-7-5] | 3.9 nM |
| CN1CCN(c2ccc(Nc3ncc4c(=O)n5n(c4n3)-c3ccc4c(n3)N(CCC/C=C\C5)C(=O)CO4)cc2)CC1 [Compound 3-3-7] | 13 nM |

Target: T1, Wee1
Test: Cell activity of Wee1 by p-CDK1Y15 ELISA assay in WiDr cells
Assay type: cell-based
Conditions: amount of p-CDK1Y15, human colon adenocarcinoma cell line WiDr, 24 hours incubation
Experimental: In the present disclosure, cellular assays were used to assess the biological activity of the compound. This assay was conducted using the human colon adenocarcinoma cell line WiDr. The activity of a specific Wee1 inhibitor was evaluated using p-CDK1Y15 ELISA assay method. The detailed assay method is described as follows:
WiDr cells were cultured in Dulbecco's Modified Eagle's medium containing 10% FBS at 37° C. and 5% CO2. Compound concentrations ranged from 0.5 nM to 30 μM. The compound was diluted, added to a 24-well plate and incubated with the cells for 24 hours. DMSO was used as a negative control. A known Wee1 inhibitor was added as a positive control in some assays. According to the instruction of the manufacturer, in the p-CDK1Y15 assay, cells were lysed and tested by a colorimetric ELISA kit to determine the amount of p-CDK1Y15. The optical density was measured using a spectrophotometer. The OD data was analyzed using Graphpad software to obtain a fitted curve of IC50 values against the compounds.

| Compound | IC50 |
| --- | --- |
| C=CCCCCN1C(=O)COc2ccc(-n3c4nc(SC)ncc4c(=O)n3CC=C)nc21 [Compound 3-1-1] | 336 nM |
| CC(C)N1CCC(n2ccc3cc(Nc4ncc5c(=O)n6n(c5n4)-c4ccc5c(n4)N(CCC/C=C\C6)C(=O)CO5)ccc32)CC1 [Compound 3-7-7] | 51.4 nM |
| CN1Cc2cc(Nc3ncc4c(=O)n5n(c4n3)-c3ccc4c(n3)N(CC/C=C\C5)C(=O)CO4)ccc2C2(CC2)C1 [Compound 3-2-3] | 326 nM |
| CN1CCN(c2cc(Nc3ncc4c(=O)n5n(c4n3)-c3ccc4c(n3)N(CCC/C=C\C5)C(=O)CO4)cc3c2ccn3C)CC1 [Compound 3-7-16] | 31.4 nM |
| CC(C)(C)OC(=O)N1CCC(n2ccc3cc(Nc4ncc5c(=O)n6n(c5n4)-c4ccc5c(n4)N(CCC/C=C\C6)C(=O)CO5)ccc32)CC1 [Compound 3-7-3] | 80.6 nM |
| CN1CCC(c2c[nH]c3cc(Nc4ncc5c(=O)n6n(c5n4)-c4ccc5c(n4)N(CCC/C=C\C6)C(=O)CO5)ccc23)CC1 [Compound 3-7-13] | 114 nM |
| CN1Cc2cc(Nc3ncc4c(=O)n5n(c4n3)-c3ccc4c(n3)N(CCC/C=C\C5)C(=O)CO4)ccc2C2(CC2)C1 [Compound 3-2-2] | 139 nM |
| COc1cc(Nc2ncc3c(=O)n4n(c3n2)-c2ccc3c(n2)N(CCC/C=C\C4)C(=O)CO3)cc(N2CCN(C)CC2)c1 [Compound 3-3-13] | 68.8 nM |
| COc1cc(Nc2ncc3c(=O)n4n(c3n2)-c2ccc3c(n2)N(CCC/C=C\C4)C(=O)CO3)ccc1N1CCN(C)CC1 [Compound 3-3-2] | 114 nM |
| CN1CCC(n2ccc3cc(Nc4ncc5c(=O)n6n(c5n4)-c4ccc5c(n4)N(CCC/C=C\C6)C(=O)CO5)ccc32)CC1 [Compound 3-7-5] | 38.8 nM |
| CN1CCN(c2ccc(Nc3ncc4c(=O)n5n(c4n3)-c3ccc4c(n3)N(CCC/C=C\C5)C(=O)CO4)cc2)CC1 [Compound 3-3-7] | 250 nM |

System: Human osteosarcoma cell line MG63
Test: Cell proliferation assay (CCK-8 cell viability)
Assay type: cell-based
Conditions: CCK-8, 72 hours incubation
Experimental: In the present disclosure, cell assays were used to assess the biological activity of the compound. Human osteosarcoma cell line MG63 (ATCC CRL-1427) was cultured in a 96-well plate of Dulbecco's Modified Eagle's medium, supplemented with 10% fetal bovine serum and 1% (v/v) L-glutamine, and the cultivation environment was 37° C. and 5% CO2. Compound concentrations ranged from 4.5 nM to 30 μM. The Wee1 inhibitor stock solution was dissolved in DMSO, added to the medium with an indicated concentration and incubated for 72 hours. Negative control cells were only treated with vehicle. In some assays, a known Wee1 inhibitor was added as a positive control. Cell viability was measured using a Cell Counting Kit-8 (CCK-8, Sigma-Aldrich) under the instruction of the product specification. The data was analyzed using Graphpad software to obtain a fitted curve of IC50 values against the compounds.

| Compound | IC50 |
| --- | --- |
| C=CCCCCN1C(=O)COc2ccc(-n3c4nc(SC)ncc4c(=O)n3CC=C)nc21 [Compound 3-1-1] | 1150 nM |
| CC(C)N1CCC(n2ccc3cc(Nc4ncc5c(=O)n6n(c5n4)-c4ccc5c(n4)N(CCC/C=C\C6)C(=O)CO5)ccc32)CC1 [Compound 3-7-7] | 44.3 nM |
| CN1CCN(c2ccc(Nc3ncc4c(=O)n5n(c4n3)-c3ccc4c(n3)N(CCC/C=C\C5)C(=O)CO4)cc2CO)CC1 [Compound 3-3-1] | 295 nM |
| CN1CCN(c2ccc(Nc3ncc4c(=O)n5n(c4n3)-c3cccc(n3)OCCCC/C=C/C5)cc2)CC1 [Compound 1-1-1] | 2400 nM |
| CC(C)(C)OC(=O)N1Cc2cc(Nc3ncc4c(=O)n5n(c4n3)-c3ccc4c(n3)N(CCC/C=C\C5)C(=O)CO4)ccc2C(C)(C)C1 [Compound 3-5-2] | 327 nM |
| CC(C)(C)OC(=O)N1CCC(n2ccc3cc(Nc4ncc5c(=O)n6n(c5n4)-c4ccc5c(n4)N(CCC/C=C\C6)C(=O)CO5)ccc32)CC1 [Compound 3-7-3] | 222 nM |
| CN1Cc2cc(Nc3ncc4c(=O)n5n(c4n3)-c3ccc4c(n3)N(CCC/C=C\C5)C(=O)CO4)ccc2C2(CC2)C1 [Compound 3-2-2] | 261 nM |
| CC(C)N1CCC(n2ccc3cc(Nc4ncc5c(=O)n6n(c5n4)-c4ccc5c(n4)N(CCC/C=C\C6)C(=O)CO5)ccc32)CC1 [Compound 3-7-15] | 211 nM |

Same assay, conditions: Homo sapiens, MG-63, 72 h, CCK-8, 72 hours incubation

| Compound | IC50 |
| --- | --- |
| CN1Cc2cc(Nc3ncc4c(=O)n5n(c4n3)-c3ccc4c(n3)N(CCO4)C(=O)CC/C=C\C5)ccc2C2(CC2)C1 [Compound 8-1-2] | 323 nM |
| CN1CCn2c(cc3cc(Nc4ncc5c(=O)n6n(c5n4)-c4ccc5c(n4)N(CCC/C=C\C6)C(=O)CO5)ccc32)C1 [Compound 3-7-8] | 654 nM |
| CN1CCN(c2cc(Nc3ncc4c(=O)n5n(c4n3)-c3ccc4c(n3)N(CCC/C=C\C5)C(=O)CO4)cc3c2ccn3C)CC1 [Compound 3-7-16] | 99.1 nM |
| CS(=O)(=O)CCN1CCC(n2ccc3cc(Nc4ncc5c(=O)n6n(c5n4)-c4ccc5c(n4)N(CCC/C=C\C6)C(=O)CO5)ccc32)CC1 [Compound 3-7-9] | 193 nM |
| CN1CCC(c2c[nH]c3cc(Nc4ncc5c(=O)n6n(c5n4)-c4ccc5c(n4)N(CCC/C=C\C6)C(=O)CO5)ccc23)CC1 [Compound 3-7-13] | 150 nM |
| CN1CCC(n2ccc3cc(Nc4ncc5c(=O)n6n(c5n4)-c4ccc5c(n4)N(CCC/C=C\C6)C(=O)CO5)ccc32)C1 (centres unmarked) [Compound 3-7-6] | 554 nM |
| COc1cc(Nc2ncc3c(=O)n4n(c3n2)-c2ccc3c(n2)N(CCC/C=C\C4)C(=O)CO3)cc(N2CCN(C)CC2)c1 [Compound 3-3-13] | 82 nM |
| O=C1COc2ccc3nc2N1CCC/C=C\Cn1c(=O)c2cnc(Nc4ccc5c(ccn5C5CCN(CCO)CC5)c4)nc2n1-3 [Compound 3-7-10] | 56.4 nM |
| COc1cc(Nc2ncc3c(=O)n4n(c3n2)-c2ccc3c(n2)N(CCC/C=C\C4)C(=O)CO3)ccc1N1CCN(C)CC1 [Compound 3-3-2] | 567 nM |
| CN1CCC(n2ccc3cc(Nc4ncc5c(=O)n6n(c5n4)-c4ccc5c(n4)N(CCC/C=C\C6)C(=O)CO5)ccc32)CC1 [Compound 3-7-5] | 60.4 nM |
| CN1CCN(c2ccc(Nc3ncc4c(=O)n5n(c4n3)-c3ccc4c(n3)N(CCC/C=C\C5)C(=O)CO4)cc2)CC1 [Compound 3-3-7] | 571 nM |
